pIC50: −log10 of the molar value. Values joined by “and” are separate entries in the source; they are usually repeats but may differ in a detail not shown here. Equal values may be shown once. Read-outs that look alike come from different tables or passages of the source.
Target: T1, canine TRPM8 (Canis lupus familiaris, UniProt Q1A7N1)
T1 construct: expressed in transfected cells
Assay: In vitro canine TRPM8 functional assay (Ca2+-sensitive dye, FLIPR/FDSS, icilin activation)
Assay type: cell-based
Details: HEK293 cells expressing canine TRPM8, icilin activation; for inhibition at 1 µM: HEK293, read-out: % I (1 μM), 1 μM compound; for IC50: IC50 (μM); for IC50 / pIC50: eight-point dose-response; for % I (0.5 μM): 0.5 μM compound; for pIC50: read-out: IC50; for % I (1 μM): 1 μM compound; for % I (5 μM): 5 μM compound
Description: The functional activity of compounds of Formula (I) was determined by measuring changes in intracellular calcium concentration using a Ca^2+-sensitive fluorescent dye. The changes in fluorescent signal were monitored by a fluorescence plate reader, either a FLIPR™ (Molecular Devices) or FDSS (Hamamatsu).
HEK293 cells stably expressing canine TRPM8 were routinely grown as monolayers in Dulbecco's minimum essential medium supplemented with 10% FBS, 1 mM L-glutamine, 100 units/mL penicillin, 100 ug/mL streptomycin and 400 μg/mL G418. Cells were maintained in 5% CO2 at 37° C. At 24 hrs prior to assay, cells were seeded in clear-base poly-D-lysine coated 384-well plates (BD Biosciences, NJ, USA) at a density of 5,000 cells per well in culture medium and grown overnight in 5% CO2 at 37° C. On assay day, growth media was removed and cells were loaded with Calcium 3 Dye (Molecular Devices) for 35 min at 37° C., under 5% CO2 and then for 25 min at room temperature and atmosphere. Subsequently, cells were tested for agonist-induced increases in intracellular Ca^2+ levels using FLIPR™ or FDSS. Cells were challenged with a compound of Formula (I) (at varying concentrations) and intracellular Ca^2+ was measured for 5 min prior to the addition of icilin to all wells to achieve a final concentration which produces approximately an 80% maximal response.
Basal FI was subtracted prior to normalizing data to percent of maximal response. Curves were generated using the average of quadruplicate wells for each data point, were analyzed using nonlinear regression of either sigmoidal dose response or sigmoidal dose response (variable slope). Finally, the EC50 and IC50 values were calculated with the best-fit dose curve determined by GraphPad Prism.

T1 sequence (Q1A7N1 1-1104): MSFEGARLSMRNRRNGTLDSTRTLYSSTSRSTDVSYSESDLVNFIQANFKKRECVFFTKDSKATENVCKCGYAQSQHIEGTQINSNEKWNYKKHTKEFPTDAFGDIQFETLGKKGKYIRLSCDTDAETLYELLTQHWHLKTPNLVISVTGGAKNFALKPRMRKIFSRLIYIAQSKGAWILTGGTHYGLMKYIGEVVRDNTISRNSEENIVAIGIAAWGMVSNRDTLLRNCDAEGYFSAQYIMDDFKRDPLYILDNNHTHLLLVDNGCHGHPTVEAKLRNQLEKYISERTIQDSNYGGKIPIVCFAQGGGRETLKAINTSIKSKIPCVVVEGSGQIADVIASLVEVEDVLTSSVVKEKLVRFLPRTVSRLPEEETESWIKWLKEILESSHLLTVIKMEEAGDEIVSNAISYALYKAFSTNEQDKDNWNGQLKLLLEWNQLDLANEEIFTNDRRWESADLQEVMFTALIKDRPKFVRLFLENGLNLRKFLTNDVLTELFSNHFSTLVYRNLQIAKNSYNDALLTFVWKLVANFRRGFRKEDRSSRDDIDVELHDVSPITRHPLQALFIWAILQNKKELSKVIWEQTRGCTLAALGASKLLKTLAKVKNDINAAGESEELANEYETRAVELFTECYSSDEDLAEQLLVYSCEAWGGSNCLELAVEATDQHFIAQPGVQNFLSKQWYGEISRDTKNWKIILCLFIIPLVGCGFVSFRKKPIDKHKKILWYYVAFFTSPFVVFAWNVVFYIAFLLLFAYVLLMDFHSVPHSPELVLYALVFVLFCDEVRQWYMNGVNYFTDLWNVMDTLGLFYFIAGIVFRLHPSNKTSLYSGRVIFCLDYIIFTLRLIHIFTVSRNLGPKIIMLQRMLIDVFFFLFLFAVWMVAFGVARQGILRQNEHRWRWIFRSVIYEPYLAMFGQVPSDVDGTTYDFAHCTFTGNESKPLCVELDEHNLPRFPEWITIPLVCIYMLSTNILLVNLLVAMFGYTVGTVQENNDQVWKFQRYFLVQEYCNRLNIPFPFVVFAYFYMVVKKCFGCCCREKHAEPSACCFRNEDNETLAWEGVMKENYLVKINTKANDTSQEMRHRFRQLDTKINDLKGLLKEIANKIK

Molecule	% I (0.5 μM)	pIC50	% I (1 μM)	further results
CCOP(=O)(OCC)C(C)(Cc1ccc(F)c(F)c1)c1sc2ccccc2c1C (stereo not shown) [Cpd 79, [2-(3,4-Difluoro-phenyl)-1-methyl-1-(3-methyl-benzo[b]-thiophen-2-yl)-ethyl]-phosphonic acid diethyl ester]				inhibition at 1 µM: 88%; IC50: 0.43 µM
CCOP(=O)(OCC)C(Cc1cccc(Cl)c1F)c1sc2ccccc2c1Br (racemic) [Cpd 143]	101%	7.17		
CCOP(=O)(OCC)C(Cc1cccc(C#N)c1)c1sc2ccccc2c1Br (stereo not shown) [Cpd 309]	103%	7.06		
CCOP(=O)(OCC)C(Cc1ccccc1F)c1cc2ccccc2s1 (stereo not shown) [Cpd 80]		6.37	93%	% I (5 μM): 100%
CC(C)OP(=O)(OC(C)C)C(Cc1ccc(SC(F)(F)F)cc1)c1sc2ccccc2c1Cl (racemic) [Cpd 304]	102%	7.55		
CCOP(=O)(OCC)C(Cc1cccc(C(F)(F)F)c1Cl)c1sc2ccccc2c1C (stereo not shown) [Cpd 81]		6.36 and 6.21	100% and 87%	
CCOP(=O)(OCC)C(Cc1cccc(F)c1F)c1sc2ccccc2c1C (stereo not shown) [Cpd 10]		7.37	100%	
CCOP(=O)(OCC)C(Cc1cc(F)cc(F)c1Cl)c1sc2ccccc2c1C (stereo not shown) [Cpd 28]		6.96	100%	
CC(C)OP(=O)(OC(C)C)C(Cc1ccc(F)c(Cl)c1)c1sc2ccccc2c1Br (racemic) [Cpd 248]	104%	7.68		
CCOP(=O)(OCC)C(Cc1ccc(F)c(F)c1)c1cc2ccccc2o1 (stereo not shown) [Cpd 265]		6.39	95%	
CCOP(=O)(OCC)C(Cc1cc(C(F)(F)F)cc(Cl)c1F)c1sc2ccccc2c1C (stereo not shown) [Cpd 73]		6.44	100%	
CCOP(=O)(OCC)C(Cc1cc(F)c(Cl)cc1Cl)c1sc2ccccc2c1C (stereo not shown) [Cpd 76]		6.40	100%	
CC(C)OP(=O)(OC(C)C)C(Cc1cccc(Cl)c1)c1sc2ccccc2c1Br (racemic) [Cpd 166]	102%	7.74 and 7.85	103%	
CCOP(=O)(OCC)C(Cc1cc(C(F)(F)F)ccc1Cl)c1sc2ccccc2c1C (stereo not shown) [Cpd 99]		6.14	100%	
CC(C)OP(=O)(OC(C)C)C(Cc1ccc(F)c(F)c1)c1sc2ccccc2c1C1CCCC1 (stereo not shown) [Cpd 38]		6.85	99%	
CCOP(=O)(OCC)C(Cc1ccc(F)c(F)c1)c1sc2cc(Cl)ccc2c1C1CCCC1 (stereo not shown) [Cpd 117, [1-(6-Chloro-3-cyclopentyl-benzo[b]thiophen-2-yl)-2-(3,4-difluoro-phenyl)-ethyl]-phosphonic acid diethyl ester]				inhibition at 1 µM: 28%
CCOP(=O)(Cc1cc2ccccc2s1)OCc1ccccc1Br (stereo not shown) [Cpd 110]		5.63	11%	% I (5 μM): 96%
CCOP(=O)(OCC)C(Cc1ccccc1C)c1sc2ccccc2c1C (stereo not shown) [Cpd 26]		6.97	100%	
CCOP(=O)(OCC)C(Cc1cccc(C(F)(F)F)c1)c1sc2ccccc2c1Br (stereo not shown) [Cpd 141]	100%	7.29		
CCOP(=O)(OCC)C(Cc1cc(F)cc(Cl)c1)c1sc2ccccc2c1Cl (stereo not shown) [Cpd 276]	103%	6.94		
[2-(3,4-Difluoro-phenyl)-1-(3-methyl-benzo[b]thiophene-2-yl)-ethyl]-methyl-phosphonic acid ethyl ester [Cpd 30]		6.92 and 6.70	100% and 99%	
CCOP(=O)(OCC)C(Cc1ccc(F)c(F)c1)c1sc2cccc(F)c2c1Br (racemic) [Cpd 224]	102%	7.36		

Molecule	% I (0.5 μM)	pIC50	% I (1 μM)	further results
CC(C)OP(=O)(OC(C)C)C(Cc1ccc(F)c(C(F)(F)F)c1)c1sc2ccccc2c1Cl (stereo not shown) [Cpd 188]	103%	7.19		
CC(C)OP(=O)(OC(C)C)C(Cc1cccc(Cl)c1)c1sc2ccccc2c1Cl (stereo not shown) [Cpd 180]	103%	7.12		
CC(C)OP(=O)(OC(C)C)C(Cc1cccc(OC(F)(F)F)c1)c1sc2ccccc2c1Cl (racemic) [Cpd 301]	102%	7.27		
CC(C)OP(=O)(OC(C)C)C(Cc1cc(Cl)ccc1F)c1sc2ccccc2c1Br (racemic) [Cpd 308]	103%	7.77		
CCOP(=O)(OCC)C(Cc1ccc(Cl)cc1)c1sc2ccccc2c1Cl (racemic) [Cpd 293]	103%	6.81		
CCOP(=O)(OCC)C(Cc1ccccc1C(F)(F)F)c1sc2ccccc2c1C (stereo not shown) [Cpd 59]		6.57	99%	
CCOP(=O)(OCC)C(Cc1ccc(F)c(F)c1)c1sc2ccccc2c1-c1ccc(F)cc1 (racemic) [Cpd 220]	101%	6.68		
CCOP(=O)(OCC)C(Cc1cccc(Cl)c1)c1sc2ccccc2c1Cl (racemic) [Cpd 290]	103%	6.94		
CC(C)OP(=O)(OC(C)C)C(Cc1c(F)c(F)c(O)c(F)c1F)c1sc2ccccc2c1Br (racemic) [Cpd 229]	95%	6.81		
CCOP(=O)(OCC)C(Cc1cc(OC)cc(OC)c1)c1sc2ccccc2c1Br (stereo not shown) [Cpd 319]	103%	7.59		
CCOP(=O)(OCC)C(Cc1ccc(C(F)(F)F)cc1)c1cc2ccccc2s1 (stereo not shown) [Cpd 68]		6.47	96%	
CCOP(=O)(OCC)C(Cc1ccc(C(F)(F)F)cc1F)c1sc2ccccc2c1Cl (racemic) [Cpd 291]	103%	6.81		
CCOP(=O)(OCC)C(Cc1ccc(F)cc1)c1sc2ccccc2c1Cl (racemic) [Cpd 284]	103% and 102%	7.10 and 7.19		
CCOP(=O)(OCC)C(Cc1ccc(F)c(F)c1)c1sc2ccccc2c1-c1cccnc1F (stereo not shown) [Cpd 128, {2-(3,4-Difluoro-phenyl)-1-[3-(2-fluoro-pyridin-3-yl)-benzo[b]thiophen-2-yl]-ethyl}-phosphonic acid diethyl ester]				inhibition at 1 µM: 100%; IC50: 0.02 µM
CC(C)OP(=O)(OC(C)C)C(Cc1cccc(F)c1)c1cc2ccccc2s1 (stereo not shown) [Cpd 133]		6.47	101%	
CCOP(=O)(OCC)C(Cc1cc2c(cc1Cl)OCO2)c1cc2ccccc2s1 (stereo not shown) [Cpd 112]			42%	
CCOP(=O)(OCC)C(Cc1cccc(C(F)(F)F)c1F)c1sc2ccccc2c1C (stereo not shown) [Cpd 37]		6.90	100%	
CC(C)OP(=O)(OC(C)C)C(Cc1ccc(F)c(F)c1)c1sc2ncccc2c1Br (racemic) [Cpd 207]	99%	7.29		
CCOP(=O)(OCC)C(Cc1ccccc1C(F)(F)F)c1sc2ccccc2c1Cl (racemic) [Cpd 279]	97%	6.54		
CCOP(=O)(OCC)C(Cc1ccc(F)c(F)c1)c1sc2ccccc2c1-c1ccccc1 (stereo not shown) [Cpd 214, [2-(3,4-Difluoro-phenyl)-1-(3-phenyl-benzo[b]thiophen-2-yl)-ethyl]-phosphonic acid diethyl ester]				inhibition at 0.5 µM (HEK293, read-out: % I (0.5 μM), 0.5 μM compound): 101%; IC50: 0.08 µM
COCCOCCOP(=O)(OCCOCCOC)C(Cc1ccc(F)c(F)c1)c1sc2ccccc2c1Br (racemic) [Cpd 210]	62%			
CCOP(=O)(OCC)C(Cc1ccc(C#N)cc1)c1sc2ccccc2c1Br (stereo not shown) [Cpd 312]	102%	7.05		

From US20080287398A1, “COLD MENTHOL RECEPTOR-1 ANTAGONISTS” (priority 2007, published 2008)
